Our source for the Emax, EC50 and melting point values is US8816090B2, “Benzisoxazole derivatives” (Pfizer Inc., priority 2005, dated 2014).

Where a name gives a salt, the structure may show the parent alone.

In data set [1] the target is T1, Human 5-HT4(d) (Homo sapiens, UniProt Q13639).
T1 construct: expressed in transfected cells
As to the kind of experiment: Agonist-induced cAMP elevation in human 5-HT4(d) transfected HEK293 cells. It counts as cell-based. The note with it: for Emax: HEK293, cAMP production normalized to the amount produced by 1,000 nM serotonin; for EC50: cAMP elevation (HTRF), human 5-HT4(d) transfected HEK293 cells. As for the experimental part: Human 5-HT4(d) transfected HEK293 cells were established in-house. The cells were grown at 37° C. and 5% CO2 in DMEM supplemented with 10% FCS, 20 mM HEPES (pH 7.4), 200 μg/ml hygromycin B (Gibco), 100 units/ml penicillin and 100 μg/ml streptomycin.
The cells were grown to 60-80% confluence. On the previous day before treatment with compounds dialyzed FCS (Gibco) was substituted for normal and the cells were incubated overnight.
Compounds were prepared in 96-well plates (12.5 μl/well). The cells were harvested with PBS/1 mM EDTA, centrifuged and washed with PBS. At the beginning of the assay, cell pellet was resuspended in DMEM supplemented with 20 mM HEPES, 10 μM pargyline (Sigma) and 1 mM 3-isobutyl-1-methylxanthine (Sigma) at the concentration of 1.6×10^5 cells/ml and left for 15 min at room temperature. The reaction was initiated by addition of the cells into plates (12.5 μl/well). After incubation for 15 min at room temperature, 1% Triton X-100 was added to stop the reaction (25 μl/well) and the plates were left for 30 minutes at room temperature. Homogenous time-resolved fluorescence-based cAMP (Schering) detection was made according to the manufacturer's instruction. ARVOsx multilabel counter (Wallac) was used to measure HTRF (excitation 320 nm, emission 665 nm/620 nm, delay time 50 μs, window time 400 μs).
Data was analyzed based on the ratio of fluorescence intensity of each well at 620 nm and 665 nm followed by cAMP quantification using cAMP standard curve. Enhancement of cAMP production elicited by each compound was normalized to the amount of cAMP produced by 1,000 nM serotonin (Sigma).

T1 sequence (Q13639 1-360 isoform Q13639-3): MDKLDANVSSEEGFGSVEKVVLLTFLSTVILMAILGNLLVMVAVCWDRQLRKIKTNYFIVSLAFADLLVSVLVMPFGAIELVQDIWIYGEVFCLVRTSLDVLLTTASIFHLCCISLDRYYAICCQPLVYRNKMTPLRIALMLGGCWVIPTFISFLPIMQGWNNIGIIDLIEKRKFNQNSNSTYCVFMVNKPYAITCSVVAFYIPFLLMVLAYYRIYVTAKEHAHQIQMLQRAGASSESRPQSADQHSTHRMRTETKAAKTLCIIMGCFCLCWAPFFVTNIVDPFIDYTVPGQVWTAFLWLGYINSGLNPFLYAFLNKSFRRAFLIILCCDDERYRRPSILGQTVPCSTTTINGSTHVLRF

Regarding `CO[C@H]1CCC[C@@H]1Oc1cccc2onc(OCC3CCN(CC4(O)CCOCC4)CC3)c12` (relative stereo) [Example 35, 4-({4-[({4-[(trans-2-Methoxycyclopentyl)oxy]-1,2-benzisoxazol-3-yl}oxy)methyl]piperidin-1-yl}-methyl)tetrahydro-2H-pyran-4-ol and its 4-methylbenzenesulfonate], in data set [1], the Emax is 56% and the response was half-maximal at 1.4 nM (EC50).

The compound `CC(C)COc1cccc2onc(OCC3CCN(CC4(C(=O)O)CCCC4)CC3)c12` [Example 9, 1-[(4-{[(4-Isobutoxy-1,2-benzisoxazol-3-yl)oxy]methyl}piperidin-1-yl)methyl]cyclopentane-carboxylic acid] yielded a melting point of 156.3 °C. In data set [1], this compound returned an Emax of 36% and an EC50 of 2.9 nM.

As for `CC(C)COc1cccc2onc(OCC3CCN(CC4(O)CCOCC4)CC3)c12` [Example 8, 1-[(4-Hydroxytetrahydro-2H-pyran-4-yl)methyl]-4-{[(4-isobutoxy-1,2-benzisoxazol-3-yl)oxy]methyl}-piperidinium and its p-toluenesulfonate salt], in data set [1], the Emax worked out at 39% and the midpoint of the response, the EC50, lay at 2.6 nM.

Compound `O=C(O)C1(CN2CCC(COc3noc4cccc(O[C@H]5CC[C@@H](CO)CC5)c34)CC2)CCCC1` [Example 48, 1-[(4-{[(4-{[cis-4-(Hydroxymethyl)cyclohexyl]oxy}-1,2-benzisoxazol-3-yl)oxy]methyl}piperidin-1-yl)methyl]cyclopentanecarboxylic acid] yielded a melting point of 188 °C. In data set [1], the Emax is 43% and the EC50 is 4.3 nM.

The compound `O[C@H]1CCCC[C@H]1Oc1cccc2onc(OCC3CCN(CC4(O)CCOCC4)CC3)c12` (relative stereo) [Example 40, 4-({4-[({4-[(cis-2-Hydroxycyclohexyloxyl)oxy]-1,2-benzisoxazol-3-yl]oxy)methyl}piperidin-1-yl}-methyl)tetrahydro-2H-pyran-4-ol] yielded a melting point of 125.2 °C. In data set [1], this compound returned an Emax of 42% and an EC50 of 16 nM.

In data set [1], `O[C@H]1CCC[C@@H]1Oc1cccc2onc(OCC3CCN(CC4(O)CCOCC4)CC3)c12` (relative stereo) [Example 32, 4-({4-[({4-[(trans-2-Hydroxycyclopentyl)oxy]-1,2-benzisoxazol-3-yl}oxy)methyl]piperidin-1-yl}-methyl)tetrahydro-2H-pyran-4-ol] showed an Emax of 40% and an EC50 of 1.6 nM.

As to `CC(C)(CN1CCC(COc2noc3cccc(OCC(F)(F)F)c23)CC1)C(=O)O` [Example 3, 2,2-Dimethyl-3-[4-({[4-(2,2,2-trifluoroethoxy)-1,2-benzisoxazol-3-yl]oxy}methyl)-piperidin-1-yl]propanoic acid], the melting point was 129.2 °C. In data set [1], the Emax was determined as 34% and the EC50 was 0.69 nM.

Compound `CC(C)COc1cccc2onc(OCC3CCN(CC(C)(C)C(=O)O)CC3)c12` [Example 11, 3-(4-{[(4-Isobutoxy-1,2-benzisoxazol-3-yl)oxy]methyl}piperidin-1-yl)-2,2-dimethylpropanoic acid] displayed a melting point of 123.7 °C. In addition, in data set [1], the Emax turned out to be 29% and the midpoint of the response, the EC50, lay at 1.4 nM.

As to `O=C(O)C1(CN2CCC(COc3noc4cccc(OC5CCOCC5)c34)CC2)CCOCC1` [Example 27, 4-{[4-({[4-(Tetrahydro-2H-pyran-4-yloxy)-1,2-benzisoxazol-3-yl]oxy}methyl)piperidin-1-yl]methyl}-tetrahydro-2H-pyran-4-carboxylic acid], in data set [1], the Emax was determined as 71% and the EC50 amounted to 11 nM.

Regarding `O=C(O)C1(CN2CCC(COc3noc4cccc(OCC5(CO)CCC5)c34)CC2)CCOCC1` [Example 49, 4-[(4-{[(4-{[1-(Hydroxymethyl)cyclobutyl]methoxy}-1,2-benzisoxazol-3-VI)oxy]methyl}piperidin-1-yl)methyl]tetrahydro-2H-pyran-4-carboxylic acid], in data set [1], the Emax worked out at 40% and the EC50 was found to be 65 nM.

In data set [1], `O=C(O)C1(CN2CCC(COc3noc4cccc(OCC5(CO)CCCC5)c34)CC2)CCC1` [Example 52, 1-[(4-{[(4-{[1-(Hydroxymethyl)cyclopentyl]methoxy}-1,2-benzisoxazol-3-yl)oxy]methyl}piperidin-1-yl)methyl]cyclobutanecarboxylic acid] yielded an Emax of 41% and an EC50 of 30 nM.

In data set [1], `O=C(O)C1(CN2CCC(COc3noc4cccc(O[C@H]5CCC[C@@H]5O)c34)CC2)CCC1` (relative stereo) [Example 34, 1-({4-[({4-[(trans-2-Hydroxycyclopentyl)oxy]-1,2-benzisoxazol-3-yl}oxy)methyl]piperidin-1-yl}-methyl)cyclobutanecarboxylic acid] had an Emax of 46% and an EC50 of 2.7 nM.

In data set [1], `O=C(O)C1(CN2CCC(COc3noc4cccc(O[C@H]5CC[C@@H](O)CC5)c34)CC2)CCOCC1` [Example 43, 4-({4-[({4-[(cis-4-Hydroxycyclohexyl)oxy]-1,2-benzisoxazol-3-yl}oxy)methyl]piperidin-1-yl}methyl)-tetrahydro-2H-pyran-4-carboxylic acid] yielded an Emax of 49% and an EC50 of 3.3 nM.

For the compound `O=C(O)C1(CN2CCC(COc3noc4cccc(OCC(F)(F)F)c34)CC2)CCOCC1` [Example 1, 4-{[4-({[4-(2,2,2-Trifluoroethoxy)-1,2-benzisoxazol-3-yl]oxy}methyl)piperidin-1-yl]methyl}tetrahydro-2H-pyran-4-carboxylic acid], in data set [1], the Emax was found to be 69% and the EC50 amounted to 1.5 nM.

`O=C(O)C1(CN2CCC(COc3noc4cccc(O[C@H]5CCC[C@@H]5O)c34)CC2)CCCC1` (relative stereo) [Example 33, 1-({4-[({4-[(trans-2-Hydroxycyclopentyl)oxy]-1,2-benzisoxazol-3-yl}oxy)methyl]piperidin-1-yl}methyl)cyclopentanecarboxylic acid]: in data set [1], the Emax turned out to be 51% and the EC50 came to 3.3 nM.

On to `O=C(O)C1(CN2CCC(COc3noc4cccc(OCC5(CO)CCCC5)c34)CC2)CCOCC1` [Example 51, 4-[(4-{[(4-{[1-(Hydroxymethyl)cyclopentyl]methoxy}-1,2-benzisoxazole-3-yl)oxy]methyl}piperidin-1-yl)methyl]tetrahydro-2H-pyran-4-carboxylic acid], for which, in data set [1], the maximum response (Emax) stood at 33% and the EC50 came out at 27 nM.

In data set [1], `OC1(CN2CCC(COc3noc4cccc(O[C@H]5CC[C@H](O)CC5)c34)CC2)CCOCC1` [Example 41, 4-({4-[({4-[(trans-4-Hydroxycyclohexyl)oxy]-1,2-benzisoxazol-3-yl}oxy)methyl]piperidin-1-yl}-methyl)tetrahydro-2H-pyran-4-ol] yielded an Emax of 44% and an EC50 of 3 nM.

Regarding `CO[C@@H]1CCC[C@@H]1Oc1cccc2onc(OCC3CCN(CC4(O)CCOCC4)CC3)c12` (relative stereo) [Example 37, 4-({4-[({4-[(cis-2-Methoxycyclopentyl)oxy]-1,2-benzisoxazol-3-yl}oxy)methyl]piperidin-1-yl}methyl)-tetrahydro-2H-pyran-4-ol and its oxalate salt], in data set [1], the Emax turned out to be 50% and the EC50 was found to be 8.8 nM.

In data set [1], `O=C(O)C1(CN2CCC(COc3noc4cccc(O[C@H]5CC[C@H](O)CC5)c34)CC2)CCOCC1` [Example 42, 4-({4-[({4-[(trans-4-Hydroxycyclohexyl)oxy]-1,2-benzisoxazol-3-yl}oxy)methyl]piperidin-1-yl}-methyl)tetrahydro-2H-pyran-4-carboxylic acid] yielded an Emax of 67% and an EC50 of 18 nM.

As to `O=C(O)C1(CCN2CCC(COc3noc4cccc(OC5CCCC5)c34)CC2)CCOCC1` [Example 25, 4-{2-[4-({[4-(Cyclopentyloxy)-1,2-benzisoxazol-3-yl]oxy}methyl)piperidin-1-yl]ethyl}tetrahydro-2H-Pyran-4-carboxylic acid], in data set [1], the Emax was 41% and the EC50 amounted to 3 nM.

In data set [1], `O[C@H]1CC[C@H](Oc2cccc3onc(OCC4CCN(CC5(O)CCOCC5)CC4)c23)C1` (relative stereo) [Example 39, 4-({4-[({4-[(trans-3-Hydroxycyclopentyl)oxy]-1,2-benzisoxazol-3-yl}oxy)methyl]piperidin-1-yl}methyl)tetrahydro-2H-pyran-4-ol] came in with an Emax of 56% and an EC50 of 1.3 nM.

In data set [1], `O=C(O)[C@H]1CC[C@H](CN2CCC(COc3noc4cccc(O[C@H]5CC[C@@H](CO)CC5)c34)CC2)CC1` [Example 47, trans-4-[(4-{[(4-{[cis-4-(Hydroxymethyl)cyclohexyl]oxy}-1,2-benzisoxazol-3-yl)oxy]methyl}-Piperidin-1-yl)methyl]cyclohexanecarboxylic acid] displayed an Emax of 71% and a concentration for a half-maximal effect (EC50) of 5.3 nM.
